Source: patent publication US9790253B2, “OSW-1 analogs and conjugates, and uses thereof” (priority 2011, dated 2017)
Residue numbers refer to the chain shown, from its start.

What was measured:
OSBP1(V582M) = molecular target: T1, OSBP1(V582M) (Homo sapiens, UniProt P22059, V582M); assay: [3H]-25-OHC binding, OSBP1(V582M) mutant; details: for binding affinity for OSBP1(V582M) compared to wt OSBP1-myc-his: [3H]-25-OHC competition binding
T1 construct: made in house; host or cells: HEK-293T (transient transfection; S100 lysate, not purified)
T1 sequence (P22059 1-807 V582M): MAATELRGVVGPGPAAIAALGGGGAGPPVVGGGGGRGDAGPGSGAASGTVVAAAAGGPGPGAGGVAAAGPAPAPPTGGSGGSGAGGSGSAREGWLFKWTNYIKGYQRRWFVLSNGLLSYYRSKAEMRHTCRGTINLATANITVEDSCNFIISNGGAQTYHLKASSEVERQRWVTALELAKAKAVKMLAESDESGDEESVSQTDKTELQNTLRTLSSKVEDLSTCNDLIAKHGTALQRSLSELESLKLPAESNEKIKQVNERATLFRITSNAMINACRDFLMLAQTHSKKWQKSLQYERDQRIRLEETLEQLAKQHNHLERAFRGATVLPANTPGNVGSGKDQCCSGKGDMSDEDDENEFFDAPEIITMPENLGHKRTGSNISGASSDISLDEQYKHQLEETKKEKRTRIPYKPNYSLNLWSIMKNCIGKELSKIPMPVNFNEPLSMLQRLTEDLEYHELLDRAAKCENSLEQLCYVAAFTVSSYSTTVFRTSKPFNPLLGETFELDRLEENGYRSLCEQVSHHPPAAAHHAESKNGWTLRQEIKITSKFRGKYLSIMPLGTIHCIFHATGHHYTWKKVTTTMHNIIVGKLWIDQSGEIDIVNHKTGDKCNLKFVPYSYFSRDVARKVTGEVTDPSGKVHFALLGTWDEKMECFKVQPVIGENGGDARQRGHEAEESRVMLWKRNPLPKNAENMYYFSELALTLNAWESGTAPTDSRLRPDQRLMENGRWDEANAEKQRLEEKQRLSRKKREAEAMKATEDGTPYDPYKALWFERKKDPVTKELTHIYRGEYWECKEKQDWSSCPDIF
Procedure: (§1) [^3H]-25-Hydroxycholesterol charcoal-dextran binding assay.
(§2) The binding affinity of 1, 2 and 4a to the OSBP1(M446W) and OSBP1(V582M) mutants were then determined using [^3H]-25-OHC competition binding. […] Within error limits, the binding affinity of 1, 2 and 4a for these two OSBP1 mutants were unchanged compared to wt OSBP1-myc-his (FIG. 4D).

OSBP1(M446W) = molecular target: T2, OSBP1(M446W) (Homo sapiens, UniProt P22059, M446W); assay: [3H]-25-OHC binding, OSBP1(M446W) mutant; details: for binding affinity for OSBP1(M446W) compared to wt OSBP1-myc-his: [3H]-25-OHC competition binding
T2 construct: made in house; host or cells: HEK-293T (transient transfection; S100 lysate, not purified)
T2 sequence (P22059 1-807 M446W): T1 sequence (P22059 1-807 V582M) with M446W, M582V
Procedure: as §1, §2

CHO-7 cells = assay: Antiproliferative activity in CHO-7 cells, lipoprotein-deficient media; assay type: cell-based
Excerpt: FIG. 4B is a bar graph depicting how removal of lipoproteins from the growth medium sensitizes CHO-7 cells to 25-OHC but not 1, 2, or 4a. Mean±s.d. of two individual experiments. Bref A, brefeldin A.
Insig is a chief regulator of SREBP-dependent cholesterol homeostasis, and 25-OHC exerts much of its ability to inhibit cholesterol biosynthesis through its binding to Insig. The possibility that suppression of the antiproliferative activity of the ORPphilins by 25-OHC could be due to displacement of these compounds from NPC1 or Insig was considered. […] In addition, the antiproliferative activity of 1-4a was evaluated in the CHO-7 cell line, which is a cell line adapted to grow in lipoprotein-deficient media. In lipoprotein-deficient media, CHO-7 cells are dependent on Insig-mediated cholesterol biosynthesis for survival, and are therefore sensitive to 25-OHC binding to Insig. Unlike 25-OHC, the antiproliferative activity of 1, 2, and 4a in CHO-7 cells was not enhanced in lipoprotein-deficient media.

## C[C@H](CCCC(C)(C)O)[C@H]1CC[C@H]2[C@@H]3CC=C4C[C@@H](O)CC[C@]4(C)[C@H]3CC[C@]12C [Compound 25-OHC, 25-hydroxycholesterol]
OSBP1(V582M)
  25-OHC KD of OSBP1(V582M) compared to wt: slightly higher
OSBP1(M446W)
  binding affinity of 25-OHC for OSBP1(M446W) compared to wt: identical to wt

## COc1ccc(C(=O)O[C@H]2[C@H](O[C@@H]3[C@@H](OC(C)=O)[C@H](O[C@H]4C[C@H]5[C@@H]6CC=C7C[C@@H](O)CC[C@]7(C)[C@H]6CC[C@]5(C)[C@@]4(O)[C@H](C)C(=O)CCC(C)C)OC[C@@H]3O)OC[C@@H](O)[C@@H]2O)cc1 [OSW-1]
OSBP1(V582M)
  binding affinity for OSBP1(V582M) compared to wt OSBP1-myc-his: unchanged
CHO-7 cells
  antiproliferative activity in lipoprotein-deficient media: not enhanced
OSBP1(M446W)
  binding affinity for OSBP1(M446W) compared to wt OSBP1-myc-his: unchanged

## C[C@@H]1[C@]2(O[C@H]3C=C4[C@@H]5CC[C@H]6Cc7nc8c(nc7C[C@]6(C)[C@H]5C[C@@H](O)[C@]4(C)[C@]31O)C[C@@H]1CC[C@H]3C4=CC[C@@H]5[C@H](C)[C@@]6(OC[C@]45C(=O)C[C@@H]3[C@@]1(C)C8)OC(C)(C)C[C@H]6O)O[C@](C)(CO)C[C@H]2O [cephalostatin 1, Cephalostatin 1]
OSBP1(V582M)
  binding affinity for OSBP1(V582M) compared to wt OSBP1-myc-his: unchanged
CHO-7 cells
  antiproliferative activity in lipoprotein-deficient media: not enhanced
OSBP1(M446W)
  binding affinity for OSBP1(M446W) compared to wt OSBP1-myc-his: unchanged

## schweinfurthin A
OSBP1(V582M)
  binding affinity for OSBP1(V582M) compared to wt OSBP1-myc-his: unchanged
CHO-7 cells
  antiproliferative activity in lipoprotein-deficient media: not enhanced
OSBP1(M446W)
  binding affinity for OSBP1(M446W) compared to wt OSBP1-myc-his: unchanged
